According to publication PMC3706206 (Chemico-biological interactions, 2011):
Read-outs that look alike come from different tables or passages of the source.

Experiments:
SK-MEL-28 melanoma cells [1] = assay: Effect of modulators on CAPE toxicity; type: cell-based, human; settings: for decrease of the IC50 value of CAPE (30 µM): MK-571 10 µM or probenecid 500 µM with CAPE 30 µM; for MTT assay value, modulator alone, Cells (1% DMSO) / MTT assay value, modulator alone, Cells: no CAPE, MK-571 10 µM, probenecid 500 µM, ethacrynic acid 2 µM; for MTT assay value, No modulator / MTT assay value, Ethacrynic acid (2 µM) / MTT assay value, MK-571 (10 µM) / MTT assay value, Probenecid (500 µM): 48 h; for MTT assay value, Ethacrynic acid (2 µM): 1 h pretreatment with EA; for MTT assay value, MK-571 (10 µM): 1 h pretreatment with MK-571; for MTT assay value, Probenecid (500 µM): 1 h pretreatment with probenecid
SK-MEL-28 melanoma cells [2] = assay: Mitochondrial membrane potential assay; type: cell-based, human; settings: for increase of the effect of CAPE (15–30 µM) on mitochondrial membrane potential: MK-571 10 µM or probenecid 500 µM, approximate; for further decrease of mitochondrial membrane potential for CAPE (15 µM) / further decrease of mitochondrial membrane potential for CAPE (30 µM): combination with MK-571 10 µM or probenecid 500 µM, 48 h
SK-MEL-28 cells = assay: Annexin V-FITC/propidium iodide apoptosis assay; type: cell-based, human; settings: for increase of CAPE (15 µM) induced apoptotic cell death / increase of CAPE (30 µM) induced apoptotic cell death: MK-571 10 µM or probenecid 500 µM, 1 h pretreatment, 48 h
[3] = system: GST in human SK-MEL-28 melanoma cell homogenate; assay: Inhibition of GST in human SK-MEL-28 melanoma cell homogenate; type: biochemical; settings: 15–100 µM, in the presence of tyrosinase (10 U/mL)
[4] = biological target: T1, human placenta GST (hGSTP1-1) (Homo sapiens, UniProt P09211); assay: Inhibition of human placenta GST; type: biochemical; settings: for GST inhibition in the absence and presence of tyrosinase: controls; for GST activity inhibition: quinone formed with tyrosinase; for GST inhibition: 25 µM
[5] = biological target: T2, GST (human placenta, hGSTP1-1) (Homo sapiens, UniProt P09211); assay: GST substrate assay; type: biochemical; settings: for substrate for GST (GSH consumption as biomarker): GST 0.1 U/mL, GSH 500 µM, no tyrosinase, up to 60 min at 37 °C
tyrosinase = assay: Metabolism by tyrosinase; type: biochemical, Mushroom
SK-MEL-28 melanoma cells [6] = assay: MTT cell cytotoxicity assay; type: cell-based, human; settings: for IC50: Homo sapiens, SK-MEL-28, 48 h, read-out: IC50 (48 h)
[7] = biological target: T1, human placenta GST (hGSTP1-1); assay: Reversible/irreversible nature of GST inhibition; type: biochemical; settings: GST activity after filtering the reaction mixture through 10 K Millipore filter; 25 µM
[8] = cited from earlier work
[9] = biological target: T2, GST (human placenta, hGSTP1-1); assay: Competitive and non-competitive GST inhibition, Lineweaver-Burk plots, Ki; type: biochemical; settings: for Mechanism of GST inhibition, with respect to GSH (0.2–1 mM): Inhibition / Mechanism of GST inhibition, with respect to CDNB (0.2–1 mM): Inhibition: CAPE 100 µM, CAPE-quinone 10 µM, CAPE-SG 10 µM, EA 20 µM; for Ki′ with respect to GSH (0.2–1 mM) / Ki′ with respect to CDNB (0.2–1 mM): mixed inhibition; for Ki: apparent Ki
[10] = 30 µM, 48 h incubation (data not shown)
[11] = read-out: Ki with respect to CDNB (0.2–1 mM), GSH 1 mM
[12] = read-out: Ki with respect to GSH (0.2–1 mM), CDNB 1 mM

T2 sequence (P09211 2-210 limits assumed): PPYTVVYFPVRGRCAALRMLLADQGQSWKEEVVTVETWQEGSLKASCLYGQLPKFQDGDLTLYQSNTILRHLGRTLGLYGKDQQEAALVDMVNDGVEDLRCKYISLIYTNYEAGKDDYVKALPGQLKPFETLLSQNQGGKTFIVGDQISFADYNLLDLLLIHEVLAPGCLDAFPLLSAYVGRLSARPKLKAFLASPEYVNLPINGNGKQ
T1 sequence (P09211 2-210 limits assumed): as above

CCCN(CCC)S(=O)(=O)c1ccc(C(=O)O)cc1 [probenecid]
decrease of the IC50 value of CAPE (30 µM) (SK-MEL-28 melanoma cells [1]): 9% | MTT assay value, modulator alone, Cells (1% DMSO) (SK-MEL-28 melanoma cells [1]): 99 ± 6 | MTT assay value, modulator alone, Cells (SK-MEL-28 melanoma cells [1]): 97 ± 5 | increase of the effect of CAPE (15–30 µM) on mitochondrial membrane potential (SK-MEL-28 melanoma cells [2]): 8–11 fold | further decrease of mitochondrial membrane potential for CAPE (15 µM) (SK-MEL-28 melanoma cells [2]): 56% | further decrease of mitochondrial membrane potential for CAPE (30 µM) (SK-MEL-28 melanoma cells [2]): 68% | increase of CAPE (15 µM) induced apoptotic cell death (SK-MEL-28 cells): 13% | increase of CAPE (30 µM) induced apoptotic cell death (SK-MEL-28 cells): 16% | change of CAPE-induced apoptotic cell death (SK-MEL-28 cells; probenecid 500 µM, CAPE at 15 or 30 µM): approximately doubled

N[C@@H](Cc1ccc(O)cc1)C(=O)O [tyrosine, L-tyrosine]
GST inhibition in SK-MEL-28 melanoma cell homogenate [3]: did not show any significant GST inhibition | GST inhibition in the absence and presence of tyrosinase [4]: no GST inhibition | substrate for GST (GSH consumption as biomarker) [5]: none of these tested compounds, including CAPE, 4-HA, tyrosine, and CA, was a substrate for GST | substrate for tyrosinase (tyrosinase): substrates for tyrosinase | cell toxicity (SK-MEL-28 melanoma cells [6]; [10]): 2–27% | IC50 (SK-MEL-28 melanoma cells [6]): > 5000 µM

O=C(O)/C=C/c1ccc(O)c(O)c1 [CA, caffeic acid]
reversible or irreversible nature of GST inhibition [7]: weak and reversible inhibitors of GST | substrate for GST (GSH consumption as biomarker) [5]: none of these tested compounds, including CAPE, 4-HA, tyrosine, and CA, was a substrate for GST | substrate for tyrosinase (tyrosinase): substrates for tyrosinase | cell toxicity (SK-MEL-28 melanoma cells [6]; [10]): 2–27% | IC50 (SK-MEL-28 melanoma cells [6]): 2300 µM

COc1ccc(O)cc1 [4-HA, 4-hydroxyanisole]
GST inhibition in the absence and presence of tyrosinase [4]: no GST inhibition | substrate for GST (GSH consumption as biomarker) [5]: none of these tested compounds, including CAPE, 4-HA, tyrosine, and CA, was a substrate for GST | substrate for tyrosinase (tyrosinase): substrates for tyrosinase | cell toxicity (SK-MEL-28 melanoma cells [6]; [10]): 2–27% | IC50 (SK-MEL-28 melanoma cells [6]): 60 µM

N[C@@H](CC1=CC(=O)C(=O)C=C1)C(=O)O [tyrosine–quinone]
GST activity inhibition ([4]; 50 µM): no significant GST inhibition

caffeic acid glutathione conjugate [CA-SG conjugate]
reversible or irreversible nature of GST inhibition [7]: reversibly

CCCCS(=N)(=O)CCC(N)C(=O)O (centres unmarked) [BSO]
effect on CAPE induced toxicity in SK-MEL-28 cells (SK-MEL-28 melanoma cells [1]; data not shown): enhanced

O=C(/C=C/c1ccc(O)c(O)c1)OCCc1ccccc1 [CAPE, caffeic acid phenethyl ester]
stability in human plasma [8]: highly stable | Mechanism of GST inhibition, with respect to GSH (0.2–1 mM): Inhibition ([9]; CDNB 1 mM): Mixed | Ki′ with respect to GSH (0.2–1 mM) ([9]; CDNB 1 mM): 2990 µM | Mechanism of GST inhibition, with respect to CDNB (0.2–1 mM): Inhibition ([9]; GSH 1 mM): Mixed | Ki′ with respect to CDNB (0.2–1 mM) ([9]; GSH 1 mM): 451 µM | Ki ([9]; Ki with respect to CDNB (0.2–1 mM), GSH 1 mM): 233 µM | Ki ([9]; Ki with respect to GSH (0.2–1 mM), CDNB 1 mM): 942 µM | inhibition at 50 µM ([4]; read-out: GST activity inhibition): 13% | reversible or irreversible nature of GST inhibition [7]: weak and reversible inhibitors of GST | MTT assay value, No modulator (SK-MEL-28 melanoma cells [1]; CAPE 15 µM): 52 ± 2 | MTT assay value, Ethacrynic acid (2 µM) (SK-MEL-28 melanoma cells [1]; CAPE 15 µM): 51 ± 2 | MTT assay value, MK-571 (10 µM) (SK-MEL-28 melanoma cells [1]; CAPE 15 µM): 39 ± 3 | MTT assay value, Probenecid (500 µM) (SK-MEL-28 melanoma cells [1]; CAPE 15 µM): 31 ± 2 | MTT assay value, No modulator (SK-MEL-28 melanoma cells [1]; CAPE 30 µM): 38 ± 2 | MTT assay value, Ethacrynic acid (2 µM) (SK-MEL-28 melanoma cells [1]; CAPE 30 µM): 39 ±4 | MTT assay value, MK-571 (10 µM) (SK-MEL-28 melanoma cells [1]; CAPE 30 µM): 26 ± 1 | MTT assay value, Probenecid (500 µM) (SK-MEL-28 melanoma cells [1]; CAPE 30 µM): 29 ± 1 | substrate for GST (GSH consumption as biomarker) [5]: none of these tested compounds, including CAPE, 4-HA, tyrosine, and CA, was a substrate for GST | substrate for tyrosinase (tyrosinase): substrates for tyrosinase | CAPE metabolized by tyrosinase (tyrosinase; after a 60-min incubation): 90% | cell toxicity (SK-MEL-28 melanoma cells [6]; 15 µM, 48 h incubation): 48% | IC50 (SK-MEL-28 melanoma cells [6]): 15 µM

COC1=CC(=O)C(=O)C=C1 [4-HA-quinone]
GST activity inhibition ([4]; 50 µM): no significant GST inhibition

caffeic acid phenethyl ester glutathione conjugate [CAPE-SG conjugate]
Mechanism of GST inhibition, with respect to GSH (0.2–1 mM): Inhibition ([9]; CDNB 1 mM): Mixed | Ki′ with respect to GSH (0.2–1 mM) ([9]; CDNB 1 mM): 14 µM | Mechanism of GST inhibition, with respect to CDNB (0.2–1 mM): Inhibition ([9]; GSH 1 mM): Competitive | Ki [9, 11]: 3.1 µM | Ki [9, 12]: 2.6 µM | GST inhibition [4]: ≥ 85% | reversible or irreversible nature of GST inhibition [7]: reversible

O=C(O)/C=C/C1=CC(=O)C(=O)C=C1 [CA-quinone]
reversible or irreversible nature of GST inhibition [7]: irreversibly

O=[N+]([O-])c1ccc(Cl)c([N+](=O)[O-])c1 [CDNB, 1-chloro-2,4-dinitrobenzene]
glutathione consumed per mole of CDNB ([5]; CDNB metabolized by GST, 60 min incubation, positive control): 0.6 mol

O=C(/C=C/C1=CC(=O)C(=O)C=C1)OCCc1ccccc1 [CAPE-quinone]
Mechanism of GST inhibition, with respect to GSH (0.2–1 mM): Inhibition ([9]; CDNB 1 mM): Competitive | Mechanism of GST inhibition, with respect to CDNB (0.2–1 mM): Inhibition ([9]; GSH 1 mM): Mixed | Ki′ with respect to CDNB (0.2–1 mM) ([9]; GSH 1 mM): 8.8 µM | Ki [9, 11]: 2.7 µM | Ki [9, 12]: 0.7 µM | GST activity inhibition ([4]; 10 µM): 70% | GST inhibition [4]: ≥ 85% | GST activity inhibition ([4]; 50 µM): 93% | reversible or irreversible nature of GST inhibition [7]: irreversible covalent binding

CN(C)C(=O)CCSC(SCCC(=O)O)c1cccc(/C=C/c2ccc3ccc(Cl)cc3n2)c1 (centres unmarked) [MK-571]
decrease of the IC50 value of CAPE (30 µM) (SK-MEL-28 melanoma cells [1]): 12% | MTT assay value, modulator alone, Cells (1% DMSO) (SK-MEL-28 melanoma cells [1]): 97 ± 1 | MTT assay value, modulator alone, Cells (SK-MEL-28 melanoma cells [1]): 98 ± 3 | increase of the effect of CAPE (15–30 µM) on mitochondrial membrane potential (SK-MEL-28 melanoma cells [2]): 3–4 fold | further decrease of mitochondrial membrane potential for CAPE (15 µM) (SK-MEL-28 melanoma cells [2]): 10% | further decrease of mitochondrial membrane potential for CAPE (30 µM) (SK-MEL-28 melanoma cells [2]): 29% | increase of CAPE (15 µM) induced apoptotic cell death (SK-MEL-28 cells): 3% | increase of CAPE (30 µM) induced apoptotic cell death (SK-MEL-28 cells): 7%

C=C(CC)C(=O)c1ccc(OCC(=O)O)c(Cl)c1Cl [Ethacrynic acid, ethacrynic acid]
effect on the IC50 value of CAPE towards melanoma cells (SK-MEL-28 melanoma cells [1]; EA 2 µM): did not affect | MTT assay value, modulator alone, Cells (1% DMSO) (SK-MEL-28 melanoma cells [1]): 96 ± 3 | MTT assay value, modulator alone, Cells (SK-MEL-28 melanoma cells [1]): 97 ± 4
